Values quoted from earlier work as cited in patent publication EP4605403B1, “METHOD AND COMPOSITION FOR OLIGONUCLEOTIDE SYNTHESIS” (Bachem Holding AG, priority 2022, dated 2024).

Settings: protonated form of the base; in water at 25 °C; from A. Fischer et al., J. Chem. Soc. 1964, 3591-3596

For `Nc1ccncc1` [4-aminopyridine], the pKa-value is given as 9.1.
